From patent US5589335A, “Hybridization promotion reagents” (Amoco Corporation, priority 1994, dated 1996)
Counter-ions that a name gives are not always drawn.

How the values were obtained:
RNase A = target: T1, RNase A (Bos taurus, UniProt P61823); assay: RNase A inhibition (capturable rRNA target complex); assay type: biochemical; conditions: for % RNase inhibition: 37° C., 15 minutes; for RNase inactivated: RNase 0.125 μg/ml, 15 min
T1 sequence (P61823 27-150): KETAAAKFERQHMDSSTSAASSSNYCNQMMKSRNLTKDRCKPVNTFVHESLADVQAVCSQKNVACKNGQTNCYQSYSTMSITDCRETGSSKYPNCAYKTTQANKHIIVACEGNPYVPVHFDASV
Procedure: Though the ability of a hybridization medium to support protease activity is desirable, an equally (or more) important property is the capability of inhibiting nucleases, especially ribonucleases. […] The experimental protocol was a follows:
1) A target complex was prepared by hybridizing target rRNA (from Salmonella extracts), capture probe (dA-676), and ^32 P-labeled 3'-Riboprobe (as earlier described).
2) The target complex was diluted into each of the above four test reagents.
3) RNase A solutions of various concentrations (0-250 μg/ml in […] phosphate buffer pH7) were prepared. Into tubes of the diluted target complex was added RNase A, to one of the final concentrations noted in Table 3 below. The control comprised only phosphate buffer diluent. The mixtures were incubated at 37° C. for 15 minutes. Proteinase K was added to a final concentration of 1.25 mg/ml to stop the nuclease activity.
4) Tailed probes and hybridized complexes were captured on magnetic beads (as previously described), which were washed and counted. The level of RNase inhibition was calculated as follows. [formula]

Proteinase K = Proteinase K (Parengyodontium album, UniProt P06873); assay: Proteinase K activity (digestion of 14C-labeled BSA); assay type: biochemical
Proteinase K, sequence (P06873 106-384): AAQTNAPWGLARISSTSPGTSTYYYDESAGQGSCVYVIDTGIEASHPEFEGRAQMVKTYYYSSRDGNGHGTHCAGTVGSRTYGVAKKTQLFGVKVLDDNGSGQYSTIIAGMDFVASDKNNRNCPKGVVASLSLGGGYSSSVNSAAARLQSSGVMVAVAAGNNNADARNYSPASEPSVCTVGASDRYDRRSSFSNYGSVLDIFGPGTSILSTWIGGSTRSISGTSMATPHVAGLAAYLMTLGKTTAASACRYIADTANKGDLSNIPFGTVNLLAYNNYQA
Procedure: Prior to empirical determination, it could not be predicted whether addition of the GuSCN to TMA.TFA would produce a reagent with the capability of controlling nucleases. The extent of Proteinase K activity in GT^3 was assayed by determining its ability to digest (solubilize) ^14 C-labeled bovine serum albumin (BSA).
These experiments were done twice, and the percentages below are the averages of the two experiments; the numbers in parentheses are the experimental variations.

Reagent stability = assay type: physicochemical
Procedure: TMA.TFA was prepared by combining equimolar amounts of concentrated Trifluoroacetic acid (Sigma Chemical Co. or Pierce Chemical Co.) and TMA.OH (Sigma Chemical Co. or Southwestern Analytical Chemicals, Inc.) and buffering it with 0.1M phosphate, 0.1M borate, 0.05 mM EDTA (phosphoric acid, boric acid, and EDTA (free acid), neutralized with TMA.OH). Buffered TMA.TFA remained at a constant pH for at least 1 year and its refractive index indicated a loss of only 2-3% of the solutes over the same period.
TMA.TCA is ideally prepared by neutralizing highly concentrated TCA (~9.3M, or ~1.5 g/ml) with TMA.OH. […] This is ideally avoided since the efficiency of hybridization falls as the pH becomes less neutral. […] From the mass, volume and concentration of starting materials, and the volume of the final solution, the nominal concentration of the final product was calculated to be about 3M.

N=C(N)N [GuSCN, Guanidinium thiocyanate]
% RNase inhibition (RNase A; RNase A 0.00 ug/ml): 100% | % RNase inhibition (RNase A; RNase A 0.13 ug/ml): 100% | % RNase inhibition (RNase A; RNase A 1.25 ug/ml): 100% | % RNase inhibition (RNase A; RNase A 4.17 ug/ml): 100% | % RNase inhibition (RNase A; RNase A 12.50 ug/ml): 100% | % BSA solubilized (Proteinase K; Proteinase K in reagent): 41% (+/-10%) | half-life of Proteinase K activity (Proteinase K; incubation at 37° C. in reagent): less than an hour

C[N+](C)(C)C [TMA.TCA, Tetramethyammonium:Trichloroacetate]
Proteinase K activity in reagent (Proteinase K): advantageously active | pH stability (Reagent stability; buffered with phosphate (0.1M) and borate (0.1M)): at least one month

C[N+](C)(C)C [TMA.TFA, Tetramethyammonium:Trifluoroacetate]
RNase A inhibition (RNase A): relatively ineffective in inactivating RNase | RNase inactivated (RNase A; with Proteinase K 2.5 mg/ml): 92% | RNase inactivated (RNase A; without the protease): 73% | time at constant pH (Reagent stability; buffered solution): at least 1 year
